This note sets out measurements from PubChem BioAssay (NCI).

Among the test systems are CCRF-CEM leukemia; IGROV1 ovarian; SN12C renal; ACHN renal; SW-620 colon; UACC-257 melanoma; HL-60(TB) leukemia; MOLT-4 leukemia; SK-MEL-5 melanoma; LOX IMVI melanoma.
Common to all, as to experiment: DTP human tumour cell line panel, 48 h

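Test compounds were applied to cells in 96-well plates for 48 hours at 5 doses. GI50 is the concentration that inhibits growth by half. TGI denotes the concentration required for complete inhibition of growth.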

By GI50 is commonly meant the concentration at which growth is held to half of that of the control. One may read the TGI as the concentration at which net growth stops. The low end stands for more potent growth arrest, the high end for less potent growth arrest. Consider `COc1cc([C@@H]2c3cc4c(cc3C(O[C@@H]3O[C@@H]5CO[C@@H](c6cccs6)OC5[C@H](O)[C@H]3O)C3COC(=O)[C@@H]32)OCO4)cc(OC)c1O` (stereo partly specified), for which the GI50 in the test with CCRF-CEM leukemia was 0.00941 µM; in the test with IGROV1 ovarian, 0.228 µM; with SN12C renal it was 0.0272 µM; with ACHN renal, 0.0269 µM; in the test with SW-620 colon, 0.0603 µM; in the test on UACC-257 melanoma it was 0.154 µM. Further, the GI50 with HL-60(TB) leukemia was 0.0104 µM; in the test on MOLT-4 leukemia it was under 0.005 µM; with SK-MEL-5 melanoma, 0.0567 µM; in the test on LOX IMVI melanoma it was 0.017 µM. Besides, the TGI came to 0.175 µM in the test with CCRF-CEM leukemia; 5.13 µM in the test on IGROV1 ovarian; 5.68 µM with SN12C renal; 0.711 µM in the test with ACHN renal; 1.63 µM in the test with SW-620 colon; 2.11 µM with UACC-257 melanoma. The TGI in the test on HL-60(TB) leukemia was found to be 0.0527 µM; in the test with MOLT-4 leukemia, 0.0284 µM; in the test with SK-MEL-5 melanoma, 0.573 µM; in the test on LOX IMVI melanoma, 0.911 µM.
On to `CC(=O)c1ccc(NC(=O)/C(Cc2ccccn2)=N/NC(=O)C[N+](C)(C)C)cc1`, for which the TGI in the test on CCRF-CEM leukemia, with IGROV1 ovarian, in the test on SN12C renal, with ACHN renal, in the test on SW-620 colon and with UACC-257 melanoma was over 100 µM each time. Moreover, the TGI with HL-60(TB) leukemia, in the test with MOLT-4 leukemia, with SK-MEL-5 melanoma and in the test with LOX IMVI melanoma was over 100 µM each time.
With `CC(=O)[O][Hg][c]1c(C)c(C)c(C)c(C)c1C`, the GI50 with CCRF-CEM leukemia is 0.895 µM; with IGROV1 ovarian it was 0.604 µM; in the test with SN12C renal it was 1.53 µM; in the test with ACHN renal it was 10 µM; in the test with UACC-257 melanoma it was 1.73 µM; in the test with HL-60(TB) leukemia, 1.91 µM. In addition, the GI50 with MOLT-4 leukemia is 0.223 µM; in the test on SK-MEL-5 melanoma, 1.38 µM; in the test on LOX IMVI melanoma, 1.29 µM. The TGI with CCRF-CEM leukemia stood at 9.71 µM; with IGROV1 ovarian it was 2.2 µM; in the test with SN12C renal, 2.97 µM; with ACHN renal it was 23.1 µM; in the test with UACC-257 melanoma, 3.45 µM; in the test on HL-60(TB) leukemia it was 4.75 µM. The TGI with MOLT-4 leukemia stood at 1.11 µM; in the test with SK-MEL-5 melanoma, 2.74 µM; in the test with LOX IMVI melanoma, 2.82 µM.
For the compound `COC(=O)C(=O)C(C(=O)C=C(C)C)C(=O)C(=O)Nc1ccc(Cl)cc1C` (stereo unspecified), the TGI with CCRF-CEM leukemia, in the test with IGROV1 ovarian, in the test with SN12C renal, with ACHN renal, with UACC-257 melanoma and in the test on HL-60(TB) leukemia was over 100 µM in each case. The TGI in the test on MOLT-4 leukemia, with SK-MEL-5 melanoma and in the test with LOX IMVI melanoma was over 100 µM in each case.
Take `O=C1C2=C(CC3C(C2)C3(Br)Br)C(=O)C2=C1CC1C(C2)C1(Br)Br` (stereo unspecified): the TGI in the test with CCRF-CEM leukemia, in the test with IGROV1 ovarian, in the test on SN12C renal, with ACHN renal, in the test on UACC-257 melanoma and in the test with HL-60(TB) leukemia was over 100 µM throughout. Also, the TGI in the test on MOLT-4 leukemia, in the test on SK-MEL-5 melanoma and in the test on LOX IMVI melanoma was over 100 µM in each case.
As to `CCOC(=O)NC(=O)c1cn(CCCOC(=O)NCCCCCCNC(=O)OCCCn2c(=O)c(C(=O)NC(=O)OCC)cn(C)c2=O)c(=O)n(C)c1=O`, the TGI in the test with CCRF-CEM leukemia, with IGROV1 ovarian, with SN12C renal, in the test with ACHN renal, in the test with SW-620 colon and in the test on UACC-257 melanoma was over 100 µM throughout. The TGI with HL-60(TB) leukemia, with MOLT-4 leukemia and in the test with LOX IMVI melanoma was over 100 µM throughout.
With `COc1cc(C(=O)O[C@H](C(N)=O)[C@]2(C)CO2)c2ccccc2c1`, the GI50 in the test on CCRF-CEM leukemia was 10.9 µM; in the test on IGROV1 ovarian it was 34.6 µM; in the test with ACHN renal it was 15.9 µM; in the test on SW-620 colon, 18.8 µM; with UACC-257 melanoma, 31.8 µM; with HL-60(TB) leukemia, 40.9 µM. Moreover, the GI50 in the test with MOLT-4 leukemia is 17 µM; with SK-MEL-5 melanoma, 7.52 µM; in the test on LOX IMVI melanoma, 24.7 µM. Further, the TGI in the test with CCRF-CEM leukemia was 58 µM; with IGROV1 ovarian it was 98.4 µM; with ACHN renal, 30.9 µM; in the test on SW-620 colon, over 100 µM; in the test on UACC-257 melanoma it was over 100 µM; in the test on HL-60(TB) leukemia, over 100 µM. Besides, the TGI came to 48.9 µM in the test with MOLT-4 leukemia, 22 µM in the test on SK-MEL-5 melanoma and 59.8 µM in the test on LOX IMVI melanoma.
`COc1ccc(-c2nc(-c3nc4ccc(C)cc4[nH]3)c3ccccn23)cc1`: the GI50 was 1.97 µM with CCRF-CEM leukemia; 2.18 µM with IGROV1 ovarian; 3.08 µM in the test with SN12C renal; 3.12 µM with SW-620 colon; 2.41 µM in the test with UACC-257 melanoma; 2.58 µM in the test on HL-60(TB) leukemia. The GI50 with MOLT-4 leukemia is 2.17 µM; in the test on SK-MEL-5 melanoma, 1.39 µM; in the test with LOX IMVI melanoma, 3.03 µM. Further, the TGI was 6.28 µM in the test on CCRF-CEM leukemia; 6.12 µM with IGROV1 ovarian; over 100 µM in the test with SN12C renal; over 100 µM with SW-620 colon; 6.17 µM in the test with UACC-257 melanoma; 6.53 µM in the test with HL-60(TB) leukemia. Moreover, the TGI with MOLT-4 leukemia is 7.99 µM; with SK-MEL-5 melanoma, 2.72 µM; with LOX IMVI melanoma, 7.73 µM.
In the case of `CCN(CC)C(=O)C/C(C)=N/NC(=O)c1ccncc1`, the TGI with CCRF-CEM leukemia, with IGROV1 ovarian, in the test on SW-620 colon, in the test on UACC-257 melanoma, in the test with HL-60(TB) leukemia and with MOLT-4 leukemia was over 100 µM throughout. The TGI in the test with SK-MEL-5 melanoma and in the test with LOX IMVI melanoma was over 100 µM each time.
In the case of `CC#CC(=O)Nc1ccccc1CC(c1c[nH]c2ccccc12)c1c[nH]c2ccccc12`, the TGI amounted to 39.4 µM in the test with CCRF-CEM leukemia; 39.2 µM in the test with IGROV1 ovarian; 30 µM in the test with SN12C renal; 36.2 µM with SW-620 colon; 57.4 µM in the test on UACC-257 melanoma; 32.1 µM with HL-60(TB) leukemia. Besides, the figures for the TGI in the test on MOLT-4 leukemia, in the test on SK-MEL-5 melanoma and in the test on LOX IMVI melanoma were 44.6 µM, 29.8 µM and 33.8 µM, respectively.
As to `COc1cc2c3c(n(CCCBr)c(=O)c2cc1OC)-c1ccc(NC(C)=O)cc1C3=O`, the GI50 with CCRF-CEM leukemia is 1.44 µM; with IGROV1 ovarian it was 10.8 µM; in the test on SN12C renal, 13.9 µM; with ACHN renal, 3.07 µM; with SW-620 colon it was 0.963 µM; in the test with UACC-257 melanoma, 28.1 µM. Further, the results for the GI50 in the test with HL-60(TB) leukemia, in the test with SK-MEL-5 melanoma and in the test on LOX IMVI melanoma were 0.55 µM, 2.45 µM and 2.1 µM, respectively. The TGI with CCRF-CEM leukemia was 19.1 µM; in the test with IGROV1 ovarian, over 100 µM; in the test on SN12C renal, over 100 µM; with ACHN renal, over 100 µM; in the test with SW-620 colon, over 100 µM; in the test with UACC-257 melanoma, over 100 µM. In addition, the values for the TGI in the test on HL-60(TB) leukemia, with SK-MEL-5 melanoma and in the test on LOX IMVI melanoma were 7.78 µM, 13.7 µM and 15 µM, respectively.
